In US20250318532A1, “ASCAROSIDE COMBINATIONS” (Ascribe Bioscience Inc., priority 2022, published 2025):

Tested on: Asian Soybean Rust (ASR)
Assay: Soybean field trial in Brazil, ascaroside with Chlorothalonil and APROACH POWER
Type: in vivo
Conditions: ascaroside alone, 250 mg/ac, foliar spray, relative to untreated controls

## CC1OC(O[C@H](C)CCCCCCCCC(=O)O)C(O)CC1O (stereo partly shown) [ascr #18]
  protection against Asian Soybean Rust: 20-40%
